Source: US7807663B2, “Therapeutic agents for diabetes” (Ajinomoto Co., Inc., priority 2003, dated 2010)
Values after ≈ are worked out from the molar mass of the structure shown.

Tested on: adipose cells of rats
Assay: Evaluation of the sugar transportation activity (2-[14C(U)]-deoxy-D-glucose incorporation)
Type: cell-based, Wistar rats
Conditions: concentration with reinforcing effect of 50% of that of insulin (100 nM) = 100%; rat adipose cells, 30 min pre-culture at 37° C., 5 min uptake
Procedure: 1. Preparation of Adipose Cells of Rats:
After the decapitation and venesection of 6 male Wistar rats (body weight: 150 to 200 g), an incision was made in the abdomen of each rat to extract 6 g in total of epididymal adipose tissues. The tissues were finely cut into 2 mm×2 mm pieces in 6 ml of KRH (Krebs-Ringer Hepes, composition: 130 mM of sodium chloride, 4.7 mM of potassium chloride, 1.2 mM of potassium dihydrogenphosphate, 1.2 mM of magnesium sulfate, 1 mM of calcium chloride and 25 mM of Hepes, pH=7.6) containing 5% of BSA (bovine serum albumin). 24 mg of collagenase (type I) was added thereto and the digestion treatment was conducted for about 40 minutes to obtain about 6 ml of isolated adipose cells. The collagenase was removed by the buffer exchange. 2% BSA/KRH solution was added to the residue for the re-suspension to obtain 45 ml of an adipose cell suspension.
2. Evaluation of the Sugar Transportation Activity:
The sugar transportation activity of the compound (I) of the present invention was evaluated with reference to a method described in a literature [Annual Review of Biochemistry, Vol. 55, p. 1059 (1986)]. In the test, 200 μL of the adipose cell suspension was poured in each polystyrene test tube, 100 μL of the solution of the test substance (by dilution of 10 mg/mL dimethyl sulfoxide solution with KRH) was added thereto, and the obtained mixture was shaken and then cultured at 37° C. for 30 minutes. The sugar transportation activity was evaluated by measuring the quantity of 2-[^14C(U)]-deoxy-D-glucose incorporated per a unit time. Namely, 2-[^14C(U)]-deoxy-D-glucose was added to the adipose cell suspension after the pre-culture (the final concentration: 0.5 μCi/sample). 5 minutes after, cytochalasin B (final concentration: 10 μM) was added to the mixture to terminate the sugar transportation. After forming a dinonyl phthalate layer, the obtained mixture was centrifuged to separate the adipose cells from the buffer. The quantity of 2-[^14C(U)]-deoxy-D-glucose contained in the adipose cell layer was determined with a liquid scintillation counter to determine the quantity of the incorporated sugar. In this evaluation system, when insulin (100 nM) having the effect of reinforcing the sugar transportation was used, the effect was about 7 times as high as that obtained in the insulin-free control group.
The results of the evaluation of the sugar transportation activity obtained by using 100 μg/mL of the compound (I) of the present invention are shown in Table 3. The sugar transportation activity in Table 3 was evaluated on the basis of the reinforcing effect of insulin (100 nM). The sugar transportation activity A in Table 3 was determined in terms of the concentration (EC50: μg/mL) of a test compound, having a reinforcing effect corresponding to 50% on the basis of the reinforcing effect of insulin (100 nM) having a reinforcing effect of 100%.
The symbols in Table 3 are as follows: • No: Compound No. in Tables 1 and 2, and • A: sugar transportation activity.

Structure (SMILES) | A: sugar transportation activity (EC50) | EC50
CCCC(=O)N1[C@@H]2CCCC[C@H]2NC2=C(C(=O)NC2)[C@H]1c1ccccc1CC [Compound 93] | 5 µg/mL | –
CCCC(=O)N1[C@@H]2CCCC[C@H]2NC2=C(C(=O)NC2)[C@H]1c1ccccc1OCC [Compound 48] | 1.3 µg/mL | –
CCCNC(=O)N1[C@@H]2CCCC[C@H]2NC2=C(C(=O)NC2)[C@H]1c1ccccc1OC [Compound 42] | 7 µg/mL | –
COc1ccccc1[C@@H]1C2=C(CNC2=O)N[C@@H]2CCCC[C@H]2N1C(=O)C(F)(F)C(F)(F)F [Compound 7] | 9.5 µg/mL | –
COc1ccccc1[C@@H]1C2=C(CNC2=O)N[C@@H]2CCCC[C@H]2N1C(=O)CCc1ccccc1 [Compound 25] | 0.9 µg/mL | –
CC(=O)OCC(=O)N1[C@@H]2CCCC[C@H]2NC2=C(C(=O)NC2)[C@H]1c1ccccc1C [Compound 85] | 8 µg/mL | –
CC(=O)N1[C@@H]2CCCC[C@H]2NC2=C(C(=O)NC2)[C@H]1c1ccccc1OC(C)C [Compound 57] | 14 µg/mL | –
COc1ccccc1[C@@H]1C2=C(CNC2=O)N[C@@H]2CCCC[C@H]2N1C(=O)CC(C)=O [Compound 29] | 5.5 µg/mL | –
COC(=O)CC(=O)N1[C@@H]2CCCC[C@H]2NC2=C(C(=O)NC2)[C@H]1c1ccccc1Cl [Compound 121] | 2 µg/mL | –
Cc1ccccc1[C@@H]1C2=C(CNC2=O)N(C)[C@@H]2CCCC[C@H]2N1C(=O)CO [Compound 92] | 1.5 µg/mL | –
CCOCC(=O)N1[C@@H]2CCCC[C@H]2NC2=C(C(=O)NC2)[C@H]1c1ccccc1OCc1ccccc1 [Compound 63] | 4 µg/mL | –
COc1ccccc1[C@@H]1C2=C(CNC2=O)N[C@@H]2CCCC[C@H]2N1C(=O)c1ccccn1 [Compound 33] | 10 µg/mL | –
Cc1ccccc1[C@@H]1C2=C(CNC2=O)N[C@@H]2CCCC[C@H]2N1C(=O)CO [Compound 86] | 2.5 µg/mL | –
CCOC(=O)N1[C@@H]2CCCC[C@H]2NC2=C(C(=O)NC2)[C@H]1c1ccccc1OC [Compound 38] | 4.2 µg/mL | –
CCC(=O)N1[C@@H]2CCCC[C@H]2NC2=C(C(=O)NC2)[C@H]1c1ccccc1C [Compound 83] | 2 µg/mL | –
CCC(=O)N1[C@@H]2CCCC[C@H]2NC2=C(C(=O)NC2)[C@H]1c1ccccc1F [Compound 124] | 2 µg/mL | –
O=C1NCC2=C1[C@@H](c1ccccc1Cl)N(C(=O)CC(F)(F)F)[C@@H]1CCCC[C@H]1N2 [Compound 118] | 0.5 µg/mL | –
CCOCC(=O)N1[C@@H]2CCCC[C@H]2NC2=C(C(=O)NC2)[C@H]1c1ccccc1OCC [Compound 53] | 4 µg/mL | –
CC(=O)N1[C@@H]2CCCC[C@H]2NC2=C(C(=O)NC2)[C@H]1c1ccccc1N [Compound 136] | 12 µg/mL | –
COC(=O)N1[C@@H]2CCCC[C@H]2NC2=C(C(=O)NC2)[C@H]1c1ccccc1C [Compound 90] | 2 µg/mL | –
COc1ccccc1[C@@H]1C2=C(CNC2=O)N[C@@H]2CCCC[C@H]2N1C(=O)CCN [Compound 23] | 8 µg/mL | –
COc1ccc([C@@H]2C3=C(CNC3=O)N[C@@H]3CCCC[C@H]3N2C(C)=O)c(OC)c1 [Compound 78] | 10 µg/mL | –
CCCC(=O)N1[C@@H]2CCCC[C@H]2NC2=C(C(=O)NC2)[C@H]1c1ccccc1Cl [Compound 117] | 4 µg/mL | –
CCNC(=O)N1[C@@H]2CCCC[C@H]2NC2=C(C(=O)NC2)[C@H]1c1ccccc1OC [Compound 41] | 3.6 µg/mL | –

Structure (SMILES) | A: sugar transportation activity (EC50) | EC50
COc1ccccc1CCC(=O)N1[C@@H]2CCCC[C@H]2NC2=C(C(=O)NC2)[C@H]1c1ccccc1OC [Compound 26] | 4 µg/mL | –
COc1ccc([C@@H]2C3=C(CNC3=O)N[C@@H]3CCCC[C@H]3N2C(C)=O)cc1 [Compound 138] | 4.4 µg/mL | –
CCOc1ccccc1[C@@H]1C2=C(CNC2=O)N[C@@H]2CCCC[C@H]2N1C(=O)C(F)(F)F [Compound 49] | 5 µg/mL | –
O=C1NCC2=C1[C@@H](c1ccccc1C1CC1)N(C(=O)CO)[C@@H]1CCCC[C@H]1N2 [Compound 104] | 0.8 µg/mL | –
CC(=O)N1[C@@H]2CCCC[C@H]2NC2=C(C(=O)NC2)[C@H]1c1ccccc1O [Compound 66] | 3.7 µg/mL | –
COC(=O)N1[C@@H]2CCCC[C@H]2NC2=C(C(=O)NC2)[C@H]1c1ccccc1OC(C)C [Compound 60] | 4.8 µg/mL | –
COC(=O)N1[C@@H]2CCCC[C@H]2NC2=C(C(=O)NC2)[C@H]1c1ccccc1 [Compound 133] | 2 µg/mL | –
CCOC(=O)N1[C@@H]2CCCC[C@H]2NC2=C(C(=O)NC2)[C@H]1c1ccccc1C [Compound 89] | 7 µg/mL | –
CCOc1ccccc1[C@@H]1C2=C(CNC2=O)N[C@@H]2CCCC[C@H]2N1C(=O)COC(C)=O [Compound 50] | 13 µg/mL | –
CCOCC(=O)N1[C@@H]2CCCC[C@H]2NC2=C(C(=O)NC2)[C@H]1c1ccc(F)cc1OC [Compound 71] | 7.8 µg/mL | –
COc1ccccc1[C@@H]1C2=C(CNC2=O)N[C@@H]2CCCC[C@H]2N1C(=O)CCc1ccc(F)c(F)c1 [Compound 27] | 4.2 µg/mL | –
CC(=O)N1[C@@H]2CCCC[C@H]2NC2=C(C(=O)NC2)[C@H]1c1ccccc1OCc1ccccc1 [Compound 64] | 3.6 µg/mL | –
CCc1ccccc1[C@@H]1C2=C(CNC2=O)N(CC)[C@@H]2CCCC[C@H]2N1C(C)=O [Compound 102] | 5 µg/mL | –
CC(=O)N1[C@@H]2CCCC[C@H]2NC2=C(C(=O)NC2)[C@H]1c1ccc(Br)s1 [Compound 144] | – | 19 µg/mL (≈ 46.3 µM)
O=C1NCC2=C1[C@@H](c1ccccc1Br)N(C(=O)CC(F)(F)F)[C@@H]1CCCC[C@H]1N2 [Compound 109] | 0.5 µg/mL | –
COc1ccccc1[C@@H]1C2=C(CNC2=O)N[C@@H]2CCCC[C@H]2N1C(=O)C(F)(F)F [Compound 5] | 4.5 µg/mL | –
CCCC(=O)N1[C@@H]2CCCC[C@H]2NC2=C(C(=O)NC2)[C@H]1c1ccccc1OC [Compound 3] | 4.6 µg/mL | –
CCOCC(=O)N1[C@@H]2CCCC[C@H]2NC2=C(C(=O)NC2)[C@H]1c1ccccc1Br [Compound 112] | 8.6 µg/mL | –
COCC(=O)N1[C@@H]2CCCC[C@H]2NC2=C(C(=O)NC2)[C@H]1c1ccccc1Cl [Compound 119] | 5 µg/mL | –
COc1ccccc1[C@@H]1C2=C(CNC2=O)N[C@@H]2CCCC[C@H]2N1C(=O)OCc1ccccc1 [Compound 39] | 6 µg/mL | –
CCC(=O)N1[C@@H]2CCCC[C@H]2NC2=C(C(=O)NC2)[C@H]1c1ccc(F)cc1OC [Compound 70] | 0.82 µg/mL | –
COc1ccccc1[C@@H]1C2=C(CNC2=O)N[C@@H]2CCCC[C@H]2N1C(=O)c1ccncc1 [Compound 35] | 18 µg/mL | –
CCOCC(=O)N1[C@@H]2CCCC[C@H]2NC2=C(C(=O)NC2)[C@H]1c1ccccc1O [Compound 65] | 1 µg/mL | –
